Results taken from US20240130988A1, “Use of stilbene compounds in the preparation of anti-tumor drugs” (Guangzhou AnHao Pharmaceutical Technology CO., LTD., priority 2022, published 2024).
One block for each compound: values may come before it.

Tests used:
Assay type in all cases: in vivo
human lung cancer A549 = assay: Compound 8 combined with carboplatin, human lung cancer A549 xenograft in nude mice; conditions: ip: carboplatin 10 mg/kg, compound 8 200 mg/kg, combination 10 + 200
Description: (§1) Experimental method: The model of human lung cancer A549 transplant tumor in nude mice was established by subcutaneously inoculating human lung cancer A549 cell lines into the armpits of nude mice. Cells were inoculated in an amount of 1×10^6, and after formation of the transplanted tumors by inoculation, the cells were passed 3 generations in nude mice before use. The vigorous growth of tumor tissue was cut into approximate 1.5 mm^3, and homogenized under sterile conditions, to prepare 1×10^7/mL of cell suspension. 0.1 mL of cell suspension was subcutaneously inoculated into the right armpit of nude mice. For transplanted tumors in nude mice, the diameter was measured with vernier caliper. After the tumor grew to 100 mm^3, the animals were randomly divided into groups, with 6 mice in each group. Using the method of measuring tumor diameter, the anti-tumor effect of test compound was dynamically Observed. Compound 8 was administered at 200 mg/kg by intraperitoneal injection, once every other day, for three weeks; carboplatin was administered at 10 mg/kg by intraperitoneal injection, once every other day, for three weeks. The measurement frequency of tumor diameter was once every three days. The dosage by volume was 0.1 mL/20 g. The mice in the negative control group were given an equal amount of physiological saline by intravenous injection. The effect of combined medicaments was evaluated based on the Q value calculated by Jin's formula: […]
Ea+b represents the tumor inhibitory rate of the combined medicaments, while Ea and Eb represent the tumor inhibitory rates of medicament A and medicament B, respectively. For example, the Q value of 0.85-1.15 means additive action (+), while the Q value of >1.15 means synergistic action (++).

[1] = tested on: human liver cancer Bel7404; assay: Compound 3 combined with lenvatinib, human liver cancer Bel7404 xenograft in nude mice; conditions: po: lenvatinib 10 mg/kg, compound 3 400 mg/kg, combination 10 + 400
Description: Experimental method: The model of human liver cancer Bel7404 transplant tumor in nude mice was established by subcutaneously inoculating human liver cancer Bel7404 cell lines into the armpits of nude mice. Cells were inoculated in an amount of 1×10^6, and after formation of the transplanted tumors by inoculation, the cells were passed 3 generations in nude mice before use. The vigorous growth of tumor tissue was cut into approximate 1.5 mm^3, and homogenized under sterile conditions, to prepare 1×10^7/mL of cell suspension. 0.1 mL of cell suspension was subcutaneously inoculated into the right armpit of nude mice. For transplanted tumors in nude mice, the diameter of the transplanted tumor was measured with vernier caliper. After the tumor grew to 100 mm^3, the animals were randomly divided into groups, with 6 animals in each group. Using the method of measuring tumor diameter, the anti-tumor effect of test compound was dynamically observed. Compound 3 was orally administered at 400 mg/kg, once a day, for three weeks; lenvartinib was also orally administered at 10 mg/kg, once a day, for two weeks. The measurement frequency of tumor diameter was once every three days. The animals in the negative control group were orally given an equal amount of physiological saline. The effect of combined medicaments was evaluated based on the Q value calculated by the Jin's formula: […]
Ea+b represents the tumor inhibitory rate of the combined medicaments, while Ea and Eb represent the tumor inhibitory rates of medicament A and medicament B, respectively. For example, the Q value of 0.85-1.15 means additive action (+), and the Q value of >1.15 means synergistic action (++).

[2] = tested on: human gastric cancer SGC7901; assay: Compound 6 combined with paclitaxel, human gastric cancer SGC7901 xenograft in nude mice; conditions: paclitaxel 10 mg/kg iv, compound 6 200 mg/kg ip, combination 10 + 200
Description: as §1, with “gastric” for “lung”, “SGC7901” for “A549”, “Using the method of measuring tumor diameter, the anti-tumor effect of test compound was dynamically Observed. Compound 8 was administered at 200 mg/kg by intraperitoneal injection, once every other day, for three weeks; carboplatin was administered at 10 mg/kg by intraperitoneal injection, once every other day, for three weeks.” left out
Ea+b represents the tumor inhibitory rate of the combined medicaments, while Ea and Eb represent the tumor inhibitory rates of medicament A and medicament B, respectively.

SMILES: N.N.O=C([O-])C1(C(=O)[O-])CCC1.[Pt+2] [Carboplatin]
RTV (d 21) (human lung cancer A549): 6.63 ± 1.42
Terminal weight (human lung cancer A549): 21.5 ± 0.9 g
Tumor inhibitory rate % (human lung cancer A549): 48.48%

Terminal weight [1]: 21.8 ± 0.7 g
SMILES: COc1cc2nccc(Oc3ccc(NC(=O)NC4CC4)c(Cl)c3)c2cc1C(N)=O [Lenvatinib, reference compound]
RTV (d 21) [1]: 3.89 ± 1.46
Tumor inhibitory rate % [1]: 65.36%

Terminal weight [2]: 21.7 ± 0.6 g
SMILES: CC(=O)O[C@H]1C(=O)[C@@]2(C)[C@H]([C@H](OC(=O)c3ccccc3)[C@]3(O)C[C@H](OC(=O)[C@H](O)[C@@H](NC(=O)c4ccccc4)c4ccccc4)C(C)=C1C3(C)C)[C@]1(OC(C)=O)CO[C@@H]1C[C@@H]2O [Paclitaxel, reference compound]
RTV (d 21) [2]: 7.37 ± 1.76
Tumor inhibitory rate % [2]: 45.49%
